{"source": "paper PMC4448943", "about": "(Neurotoxicology, 2014)", "key": {"rats": {"system": "rats", "conditions": "rat, in vivo, cited from earlier work"}, "[1]": {"system": "Adult male Sprague-Dawley rats", "conditions": "rat, in vivo"}, "hippocampal AChE": {"target": "T1, hippocampal AChE (Rattus norvegicus, UniProt P37136)", "T1 sequence (P37136 32-614)": "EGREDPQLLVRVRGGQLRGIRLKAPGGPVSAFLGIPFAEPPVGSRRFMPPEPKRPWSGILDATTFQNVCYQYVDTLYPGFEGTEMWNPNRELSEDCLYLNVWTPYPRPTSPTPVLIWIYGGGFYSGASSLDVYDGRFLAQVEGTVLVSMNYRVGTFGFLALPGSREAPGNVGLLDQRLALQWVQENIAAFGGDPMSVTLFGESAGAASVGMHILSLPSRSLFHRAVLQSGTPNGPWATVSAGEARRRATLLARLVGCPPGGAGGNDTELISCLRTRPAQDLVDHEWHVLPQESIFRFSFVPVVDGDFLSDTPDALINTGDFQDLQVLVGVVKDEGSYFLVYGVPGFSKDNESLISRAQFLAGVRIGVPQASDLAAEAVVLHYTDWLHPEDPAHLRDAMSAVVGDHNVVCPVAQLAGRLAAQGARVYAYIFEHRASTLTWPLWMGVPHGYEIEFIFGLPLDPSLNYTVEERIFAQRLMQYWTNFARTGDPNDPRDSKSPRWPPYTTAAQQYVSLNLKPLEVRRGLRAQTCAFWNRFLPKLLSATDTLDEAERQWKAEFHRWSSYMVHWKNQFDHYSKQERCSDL", "type": "in vivo"}, "[2]": {"system": "Adult male Sprague-Dawley rats", "conditions": "rat, in vivo", "remark": "listed apart in the source"}, "rat hippocampal AChE": {"target": "T2, rat hippocampal AChE (Rattus norvegicus, UniProt P37136)", "T2 sequence (P37136 32-614)": "T1 sequence (P37136 32-614)", "type": "biochemical"}, "rat hippocampal FAAH": {"target": "T3, rat hippocampal FAAH (Rattus norvegicus, UniProt P97612)", "T3 sequence (P97612 1-579)": "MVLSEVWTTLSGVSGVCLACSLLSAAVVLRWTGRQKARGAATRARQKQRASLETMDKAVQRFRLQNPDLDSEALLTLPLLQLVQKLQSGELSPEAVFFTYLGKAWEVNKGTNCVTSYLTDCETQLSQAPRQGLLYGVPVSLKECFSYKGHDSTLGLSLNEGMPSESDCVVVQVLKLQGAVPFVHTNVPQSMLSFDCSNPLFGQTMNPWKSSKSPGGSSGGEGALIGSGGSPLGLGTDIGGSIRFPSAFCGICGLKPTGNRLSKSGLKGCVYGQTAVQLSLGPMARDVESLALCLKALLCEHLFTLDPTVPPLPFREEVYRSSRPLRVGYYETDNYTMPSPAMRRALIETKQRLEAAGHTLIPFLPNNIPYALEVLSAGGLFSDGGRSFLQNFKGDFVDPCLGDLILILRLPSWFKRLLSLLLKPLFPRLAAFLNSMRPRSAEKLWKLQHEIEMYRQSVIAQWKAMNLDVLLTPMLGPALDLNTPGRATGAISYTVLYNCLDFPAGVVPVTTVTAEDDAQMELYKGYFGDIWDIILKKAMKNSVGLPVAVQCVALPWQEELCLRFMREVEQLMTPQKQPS", "assay": "In vitro inhibition of hippocampal FAAH activity", "type": "biochemical"}, "hippocampal FAAH": {"target": "T4, hippocampal FAAH (Rattus norvegicus, UniProt P97612)", "T4 sequence (P97612 1-579)": "T3 sequence (P97612 1-579)", "conditions": "four hours after dosing, PO 0.3 and 0.6 mg/kg sc, CPO 6 and 12 mg/kg sc"}, "hippocampal MAGL": {"target": "T5, hippocampal MAGL (Rattus norvegicus, UniProt Q8R431)", "T5 sequence (Q8R431 1-303)": "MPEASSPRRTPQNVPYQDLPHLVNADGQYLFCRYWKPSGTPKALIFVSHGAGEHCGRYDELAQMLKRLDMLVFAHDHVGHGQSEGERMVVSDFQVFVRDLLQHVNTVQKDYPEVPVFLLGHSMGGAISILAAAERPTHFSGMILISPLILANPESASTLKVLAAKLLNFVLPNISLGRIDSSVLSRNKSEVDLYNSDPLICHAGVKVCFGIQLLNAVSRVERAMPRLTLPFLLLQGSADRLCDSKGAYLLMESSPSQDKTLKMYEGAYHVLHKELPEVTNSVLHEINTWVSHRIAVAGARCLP", "type": "in vivo", "conditions": "four hours after dosing; PO 0.3 and 0.6 mg/kg sc, CPO 6 and 12 mg/kg sc"}, "rat hippocampal MAGL": {"target": "T6, rat hippocampal MAGL (Rattus norvegicus, UniProt Q8R431)", "T6 sequence (Q8R431 1-303)": "T5 sequence (Q8R431 1-303)", "assay": "In vitro inhibition of hippocampal MAGL activity", "type": "biochemical", "conditions": "CPO more potent than PO"}}, "note": "Where two headings read alike, the source gives them in different places.", "data": [{"smiles": "Cc1c(C(=O)NN2CCCCC2)nn(-c2ccc(Cl)cc2Cl)c1-c1ccc(I)cc1", "note": "[AM251, N-(piperidin-1-yl)-5-(4-iodophenyl)-1-(2,4-dichlorophenyl)-4-methyl-1H-pyrazole-3-carboxamide]", "values": [{"measurement": "Influence on responses to chlorpyrifos", "setting": "rats", "value": "no influence"}]}, {"smiles": "Cc1c(C(=O)c2cccc3ccccc23)c2cccc3c2n1[C@H](CN1CCOCC1)CO3", "note": "[WIN 55,212-2]", "values": [{"measurement": "Effect on signs of cholinergic toxicity following acute PO exposure", "setting": "rats; po", "value": "reduced"}]}, {"smiles": "CCOP(=O)(OCC)Oc1nc(Cl)c(Cl)cc1Cl", "note": "[chlorpyrifos oxon]", "values": [{"measurement": "Lethality", "setting": "[1]; male, Sprague-Dawley", "value": "0/6"}, {"measurement": "Lethality", "setting": "[1]", "value": "no lethality"}, {"measurement": "In vivo inhibition of hippocampal AChE activity", "setting": "hippocampal AChE; rat, in vivo", "value": "80–90%"}, {"measurement": "Involuntary movements (tremors)", "setting": "[2]", "value": "dose-related"}, {"measurement": "SLUD signs (primarily defecation and lacrimation)", "setting": "[2]", "value": "slightly increased"}, {"measurement": "In vitro potency at inhibiting AChE relative to PO", "setting": "rat hippocampal AChE", "value": "≈ 2 fold"}, {"measurement": "IC50", "setting": "rat hippocampal FAAH", "value": 71, "unit": "nM"}, {"measurement": "In vitro potency at inhibiting FAAH relative to PO", "setting": "rat hippocampal FAAH; CPO more potent than PO", "value": "≈ 8 fold"}, {"measurement": "In vivo inhibition of hippocampal FAAH activity", "setting": "hippocampal FAAH", "value": "90–95%"}, {"measurement": "In vivo inhibition of hippocampal FAAH activity", "setting": "hippocampal FAAH; listed as CPO", "value": "80–90%"}, {"measurement": "In vivo inhibition of hippocampal MAGL activity", "setting": "hippocampal MAGL", "value": "37–50%"}, {"measurement": "In vitro potency at inhibiting MAGL relative to PO", "setting": "rat hippocampal MAGL", "value": "≈ 19 fold"}]}, {"smiles": "CCOP(=O)(OCC)Oc1ccc([N+](=O)[O-])cc1", "note": "[paraoxon, Paraoxon]", "values": [{"measurement": "Lethality", "setting": "[1]; male, Sprague-Dawley, 0.6 mg/kg", "value": "2/14"}, {"measurement": "In vivo inhibition of hippocampal AChE activity", "setting": "hippocampal AChE; four hours after dosing, PO 0.3 and 0.6 mg/kg sc, CPO 6 and 12 mg/kg sc", "value": "80–90%"}, {"measurement": "Involuntary movements (tremors)", "setting": "[2]", "value": "dose-related"}, {"measurement": "SLUD signs (primarily defecation and lacrimation)", "setting": "[2]", "value": "slightly increased"}, {"measurement": "IC50", "setting": "rat hippocampal FAAH", "value": 562, "unit": "nM"}, {"measurement": "In vivo inhibition of hippocampal FAAH activity", "setting": "hippocampal FAAH", "value": "90–95%"}, {"measurement": "In vivo inhibition of hippocampal FAAH activity", "setting": "hippocampal FAAH; listed as PO", "value": "80–90%"}, {"measurement": "In vivo inhibition of hippocampal MAGL activity", "setting": "hippocampal MAGL", "value": "neither dosage of paraoxon affected MAGL activity"}]}]}
